Measurements taken from patent US20250171433A1, “A1H-BENZO[C][1,2]THIADIAZINE-2,2-DIOXIDES BEARING HETEROCYCLIC LINKERS AS SELECTIVE HISTONE DEACETYLASE 6 INHIBITORS” (Georgetown University, priority 2022, published 2025).
Like-named read-outs stand apart in the source and are kept apart here.

Key:
[1] = target: T1, hHDAC6 (Homo sapiens, UniProt Q9UBN7); experiment: HDAC enzyme activity inhibition assay, HDAC6; assay type: biochemical; conditions: duplicate, performed by DRC; read-out: potency at hHDAC6
T1 construct: host or cells: baculovirus / Sf9 cells
T1 sequence (Q9UBN7 1-1215): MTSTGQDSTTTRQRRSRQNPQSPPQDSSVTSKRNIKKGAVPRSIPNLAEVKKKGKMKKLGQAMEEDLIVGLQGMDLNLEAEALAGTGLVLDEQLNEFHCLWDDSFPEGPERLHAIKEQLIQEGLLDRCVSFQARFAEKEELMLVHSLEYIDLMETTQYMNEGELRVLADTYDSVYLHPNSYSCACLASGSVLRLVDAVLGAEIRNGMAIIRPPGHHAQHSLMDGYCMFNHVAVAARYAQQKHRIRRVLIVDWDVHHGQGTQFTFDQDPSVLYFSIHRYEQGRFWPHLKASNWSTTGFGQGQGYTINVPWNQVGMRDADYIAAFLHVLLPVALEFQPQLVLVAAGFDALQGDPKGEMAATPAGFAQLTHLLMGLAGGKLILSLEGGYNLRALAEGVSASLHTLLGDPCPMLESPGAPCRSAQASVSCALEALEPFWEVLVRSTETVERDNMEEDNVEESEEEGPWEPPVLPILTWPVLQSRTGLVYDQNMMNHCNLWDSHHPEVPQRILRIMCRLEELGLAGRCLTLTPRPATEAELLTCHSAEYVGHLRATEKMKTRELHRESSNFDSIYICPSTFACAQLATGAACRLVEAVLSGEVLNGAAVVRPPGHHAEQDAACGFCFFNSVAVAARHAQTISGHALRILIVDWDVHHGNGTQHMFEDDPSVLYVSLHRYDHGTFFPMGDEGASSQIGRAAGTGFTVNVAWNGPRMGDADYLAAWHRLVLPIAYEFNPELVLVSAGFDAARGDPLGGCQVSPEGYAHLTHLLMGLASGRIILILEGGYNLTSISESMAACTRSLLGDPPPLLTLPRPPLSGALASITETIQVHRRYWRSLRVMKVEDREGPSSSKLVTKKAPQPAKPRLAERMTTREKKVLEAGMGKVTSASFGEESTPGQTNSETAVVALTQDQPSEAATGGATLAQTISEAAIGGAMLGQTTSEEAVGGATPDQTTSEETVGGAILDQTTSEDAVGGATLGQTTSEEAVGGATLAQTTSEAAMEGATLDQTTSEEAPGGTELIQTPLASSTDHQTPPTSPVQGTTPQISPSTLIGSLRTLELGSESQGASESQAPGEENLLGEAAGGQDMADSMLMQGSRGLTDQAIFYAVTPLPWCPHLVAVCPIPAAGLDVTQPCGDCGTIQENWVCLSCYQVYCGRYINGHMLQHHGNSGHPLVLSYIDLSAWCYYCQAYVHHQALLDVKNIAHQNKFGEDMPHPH
Description: (§1) The effectiveness, or potency, of a present HDAC6I with respect to inhibiting the activity of an HDAC is measured by an IC50 value. The quantitative IC50 value indicates the concentration of a particular compound that is needed to inhibit the activity of an enzyme by 50% in vitro. Stated alternatively, the IC50 value is the half maximal (50%) inhibitory concentration of a compound tested using a specific enzyme, e.g., HDAC, of interest.
(§2) The HDAC1, 2, 4, 5, 6, 7, 8, 9, 10, and 11 assays used isolated recombinant human protein; HDAC3/NcoR2 complex was used for the HDAC3 assay. Substrate for HDAC1, 2, 3, 6, 10, and 11 assays is a fluorogenic peptide from p53 residues 379-382 (RHKKAc); substrate for HDAC8 is fluorogenic diacyl peptide based on residues 379-382 of p53 (RHKAcKAc). Acetyl-Lys(trifluoroacetyl)-AMC substrate was used for HDAC4, 5, 7, and 9 assays. Compounds were dissolved in DMSO and tested in 10-dose IC50 mode with 3-fold serial dilution starting at 30 μM. […]
(§3) All IC50 values are automatically calculated using the GraphPad Prism version 5 and Equation of Sigmoidal dose-response (variable slope): […]
(§4) HDAC Activity Assays: HDAC assay is performed using fluorescently-labeled acetylated substrate, which comprises an acetylated lysine side chain. […] HDACs 1 and 6 were expressed as full length fusion proteins. […]

[2] = target: T2, HDAC1 (Homo sapiens, UniProt Q13547); experiment: HDAC enzyme activity inhibition assay, HDAC1; assay type: biochemical; conditions: DRC
T2 construct: host or cells: baculovirus / Sf9 cells
Description: as §1, §2, §3, §4

[3] = tested on: other HDAC subtypes; experiment: Inhibition of other HDAC subtypes at a single concentration; assay type: biochemical, human
Description: The HDAC1, 2, 4, 5, 6, 7, 8, 9, 10, and 11 assays used isolated recombinant human protein; HDAC3/NcoR2 complex was used for the HDAC3 assay. Substrate for HDAC1, 2, 3, 6, 10, and 11 assays is a fluorogenic peptide from p53 residues 379-382 (RHKKAc); substrate for HDAC8 is fluorogenic diacyl peptide based on residues 379-382 of p53 (RHKAcKAc). Acetyl-Lys(trifluoroacetyl)-AMC substrate was used for HDAC4, 5, 7, and 9 assays. Compounds were dissolved in DMSO and tested in 10-dose IC50 mode with 3-fold serial dilution starting at 30 μM. Control compound trichostatin A (TSA) was tested in a 10-dose IC50 mode with 3-fold serial dilution starting at 5 μM. IC50 values were extracted by curve-fitting the dose/response slopes. Assays were performed in duplicate, and IC50 values are an average of data from both experiments.

[4] = Kinetic solubility; assay type: physicochemical
[5] = Permeability and efflux; assay type: in vitro ADME
[6] = Clearance in human microsomes; assay type: in vitro ADME
[7] = Clearance in mouse microsomes; assay type: in vitro ADME
[8] = Free fraction in mouse plasma; assay type: in vitro ADME
[9] = Free fraction in human plasma; assay type: in vitro ADME
[10] = Chemical stability at pH 7.4 and 2; assay type: physicochemical
[11] = Mice iv PK; conditions: mouse, in vivo
[12] = Oral PK study with brain and sciatic nerve exposure; assay type: in vivo, mice
[13] = Reported functional activity
[14] = mouse, plasma, oral PK study, gavage

T2 sequence (Q13547 whole entry): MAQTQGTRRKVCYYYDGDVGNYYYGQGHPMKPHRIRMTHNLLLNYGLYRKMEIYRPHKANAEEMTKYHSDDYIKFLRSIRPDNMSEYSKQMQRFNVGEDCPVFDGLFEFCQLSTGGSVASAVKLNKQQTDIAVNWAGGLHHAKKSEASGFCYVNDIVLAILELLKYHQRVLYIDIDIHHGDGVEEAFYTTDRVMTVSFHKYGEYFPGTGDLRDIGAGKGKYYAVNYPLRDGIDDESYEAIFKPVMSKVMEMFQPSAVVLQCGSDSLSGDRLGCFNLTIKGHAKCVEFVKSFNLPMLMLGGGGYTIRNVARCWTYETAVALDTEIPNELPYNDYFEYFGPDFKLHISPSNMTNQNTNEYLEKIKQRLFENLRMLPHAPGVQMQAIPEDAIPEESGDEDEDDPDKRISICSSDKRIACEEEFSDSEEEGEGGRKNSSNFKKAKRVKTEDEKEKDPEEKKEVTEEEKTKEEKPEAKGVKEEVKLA

Q: Which results are given for `O=S1(=O)CCc2ccccc2N1Cc1ccc(-c2nnc(C(F)F)o2)cn1` [Compound 1, 1-[[5-[5-(Difluoromethyl)-1,3,4-axadiazol-2-yl)pyridin-2-yl]methyl]-3,4-dihydro-1H-benzo[c][1,2]thiazine-2,2-dioxide]?
A: IC50 [1]: 29 nM; selectivity against HDAC1 [2]: full selectivity; % inh. at 10 μM versus other HDAC subtypes [3]: < 20%; kinetic solubility [4]: high; efflux [5]: low; permeability [5]: high; clearance in human microsomes [6]: low; clearance in mouse microsomes [7]: higher; microsomal CLint ([7]; mouse, compared with set criteria in Schedule B, species not given): > 50 µL/min/mg; free fraction in mouse plasma [8]: high; free fraction in human plasma [9]: high; chemical stability at pH 2 ([10]; pH 2): chemically stable; chemical stability at pH 7.4 ([10]; pH 7.4): chemically stable; clearance [11]: 44.9 mL/min/kg; Kp at 1 h ([12]; mouse, brain and plasma, oral, @1 h, read-out: Brain/Plasma ratio): 0.8; Kp at 4 h ([12]; mouse, brain and plasma, oral, @4 h, read-out: Brain/Plasma ratio): 1.2; concentrations detected in the brain and the sciatic nerve ([12]; mouse, in vivo): moderate; bioavailability ([12]; mouse, plasma, oral PK study): 14.7%; half-life ([12]; mouse, plasma, oral PK study): 2.2 h; Cmax [12, 14]: 456 ng/mL; Tmax [12, 14]: 0.25 h; MRT ([12]; mouse, plasma, oral PK study, read-out: mean residence time): 3.14 h; Kp at 1 h ([12]; mouse, sciatic nerve and plasma, oral, at 1 h, read-out: Sciatic nerve/plasma ratio): 0.4; clearance ([12]; oral PK study): medium; volume of distribution ([12]; oral PK study): medium; reported functional activity [13]: 0.76 µM
